The target of test [1] is T1, human KCNQ4 (Homo sapiens, UniProt P56696).
T1 construct: host or cells: CHO-K1 (Chinese hamster ovary), transient transfection with Lipofectamine 2000, co-transfected with GFP
Nature of the test: Whole-cell voltage clamp of KCNQ4 channel current in transfected CHO-K1 cells. The format is cell-based. The arrangement: key to KCNQ4 (IDrug/IControl 100 nM): IDrug/IControl current amplitude ratio at -10 mV. As to conditions: for KCNQ4 (IDrug/IControl 100 nM): activation efficacy, 100 nM compound, -10 mV test pulse, CHO-K1 cells, mean ± SEM. On the procedure:
(§1) The cell line used in the electrophysiological experiments was the Chinese hamster ovary cell line (CHO-K1); KCNQ cDNA was transformed into E. coli, expressed in E. coli, and then confirmed by plasmid extraction and sequencing.
(§2) CHO-K1 cells (Cell Bank of Chinese Academy of Sciences), medium formula: 50/50 DMEM/F-12 (Gibco), supplemented with 10% fetal bovine serum (FBS) (Gibco, Australia) and 2 mM L-glutamine (Invitrogen). Transfection and expression of KCNQ channels: 24 hours before transfection, cells were digested with trypsin (Sigma, China) and spread in a 6-well plate. Lipofectamine2000™ reagent (Invitrogen) was used for transfection, and the experiment was carried out according to the procedures provided. Twenty-four hours after transfection, cells were digested and seeded onto poly-L-lysine (Sigma)-soaked slides. After co-transfected with GFP (green fluorescent protein), the transfected cells were determined under a fluorescence microscope (Olympus). The human KCNQ2 plasmid (NCBI: NM_172107.4) and human KCNQ4 plasmid (NCBI: NM_004700.4) used were synthesized by Beijing Genomics Institute and constructed in the pcDNA3.1(+) vector plasmid. KCNQ2 and KCNQ4 plasmids were confirmed by plasmid extraction and sequencing after transformation into E. coli DH5α.
(§3) Whole-cell voltage clamp experiments were carried out at room temperature (23˜25° C.), where Axopatch-700B amplifier (Molecular Devices, Sunnyvale, CA) and Digidata 1440A (Molecular Devices) as digital-to-analog converter were used, pClamp 10.0 software (Molecular Devices, Sunnyvale, CA) was used for signal acquisition, the signal was filtered at 2 kHz, the sampling frequency was 10 kHz. Series resistance compensation was used and set to 60%. Pipettes were pulled from Borosilicate glass capillaries (World Precision Instruments, Sarasota, FL), and the resistance of the pipettes filled with an intracellular fluid was 3-5 MΩ. The perfusion drug delivery system was BPS-8 (ALA Scientific Instruments, Westburg, NY) with a speed of approximately 1 mL/min.
(§4) Intracellular fluid formulation for electrophysiological experiments: 145 mM KCl, 1 mM MgCl2, 5 mM EGTA, 10 mM HEPES, 5 mM MgATP (adjusted to pH=7.3 with KOH).
(§5) Extracellular fluid formulation for electrophysiological experiments: 140 mM NaCl, 5 mM KCl, 2 mM CaCl2), 1.5 mM MgCl2, 10 mM HEPES, 10 mM glucose (adjusted to pH=7.4 with NaOH).
(§6) To record the whole-cell currents of KCNQ2 and KCNQ4 channels, the cells were clamped at a holding potential of −120 mV, and then depolarized to −10 mV for a duration of 1500 ms, and the stimulation frequency was 0.1 Hz. The current amplitudes at the −10 mV test pulse before (IControl) and after (IDrug) the perfusion of the compounds were collected to determine the activation efficacy (IDrug/IControl).
(§7) A certain mass of the compound was weighed and dissolved in DMSO to prepare a 20 mM DMSO stock solution which was frozen and stored at −20° C. until use. […] This kind of concentration of DMSO has no effect on the detected KCNQ channel current. For example, to prepare 100 nM and 1 μM compound solutions, the gradient dilution method was as follows: 5 μL DMSO stock solution was first pipetted and added to 10 mL of extracellular fluid, and was dissolved evenly to obtain a 10 μM compound solution; then 1 mL of 10 μM compound solution was pipetted and added to 9 mL of extracellular fluid, dissolved evenly to obtain a 1 μM compound solution; then 1 mL of 1 μM compound was pipetted and added to 9 mL of extracellular fluid, dissolved evenly to obtain a 100 nM compound solution.
(§8) Data collection, analysis and processing were performed using pClamp10 (Molecular Devices, Sunnyvale, CA), GraphPad Prism 5 (GraphPad Software, San Diego, CA) and Excel (Microsoft Corporation) software. All data are expressed as mean±standard error. (Mean±SEM), significance analysis was performed using unpaired student's t-test. When P<0.05, the difference between the two groups was considered statistically significant. […]

Test [2] has as its target T2, human KCNQ2 (Homo sapiens, UniProt O43526).
T2 construct: host or cells: CHO-K1 (Chinese hamster ovary), transient transfection with Lipofectamine 2000, co-transfected with GFP
Nature of the test: Whole-cell voltage clamp of KCNQ2 channel current in transfected CHO-K1 cells. It is filed as cell-based. The arrangement: key to KCNQ2 (IDrug/IControl 100 nM): IDrug/IControl current amplitude ratio at -10 mV. As to conditions: for KCNQ2 (IDrug/IControl 100 nM): activation efficacy, 100 nM compound, -10 mV test pulse, CHO-K1 cells, mean ± SEM. On the procedure:
as §1, §2, §3, §4, §5, §6, §7, §8

Where [3] appears, read: in vitro electrophysiological experiments.

`C#CCN(Cc1ccc(I)cc1)c1ccc(NC(=O)OC(C)(C)C)cc1` [Compound K37]: in test [1], the “KCNQ4 (IDrug/IControl 100 nM)” value stood at 3.28 ± 0.21. In addition, in test [2], the “KCNQ2 (IDrug/IControl 100 nM)” value was found to be 1.02 ± 0.04.
In the case of `C#CCN(Cc1ccc(Br)cc1)c1ccc(NC(=O)OC(C)(C)C)cc1` [Compound K36], the “KCNQ4 (IDrug/IControl 100 nM)” value in test [1] is reported as 3.50 ± 0.28. For the same compound, the “KCNQ2 (IDrug/IControl 100 nM)” value in test [2] was determined as 1.05 ± 0.03.
Taken in the same sequence, the figures for `C#CCN(Cc1ccc(F)c(C#N)c1)c1ccc(NC(=O)OC(C)(C)C)cc1` [Compound K40] were 1.26 ± 0.16 and 0.97 ± 0.02.
Taken in the same sequence, the figures for `C#CCN(Cc1ccc(Cl)cc1)c1ccc(NC(=O)OC(C)(C)C)cc1` [Compound K35] were 3.30 ± 0.62 and 0.98 ± 0.03.
For the compound `C#CCN(Cc1ccc(Br)c(F)c1)c1ccc(NC(=O)OC(C)(C)C)cc1` [Compound K43], the “KCNQ4 (IDrug/IControl 100 nM)” value in test [1] was determined as 2.72 ± 0.38. Further, the “KCNQ2 (IDrug/IControl 100 nM)” value in test [2] stood at 0.98 ± 0.00.
In the same order, the values of `C#CCN(Cc1cccc(F)c1)c1ccc(NC(=O)OC(C)(C)C)cc1` [Compound K33] are 3.00 ± 0.18 and 1.06 ± 0.03.
On to `C#CCN(Cc1ccc(F)cc1)c1ccc(NC(=O)OC(C)(C)C)cc1` [Compound K31], for which the “KCNQ4 (IDrug/IControl 100 nM)” value in test [1] was 3.06 ± 0.61. Besides, in test [1] (setting [3]), the “KCNQ4 agonistic activity (in words)” value is “still had good KCNQ4 agonistic activity”. In test [2], the “KCNQ2 (IDrug/IControl 100 nM)” value was determined as 1.07 ± 0.04. Also, in test [2] (setting [3]), the “KCNQ2 agonistic activity (in words)” value was “lost KCNQ2 agonistic activity”.
`C#CCN(Cc1ccc(C(C)(C)C)cc1)c1ccc(NC(=O)OC(C)(C)C)cc1` [Compound K34]: the “KCNQ4 (IDrug/IControl 100 nM)” value in test [1] worked out at 4.40 ± 0.62. The “KCNQ2 (IDrug/IControl 100 nM)” value in test [2] is given as 1.07 ± 0.04.
Taken in the same sequence, the figures for `C#CCN(Cc1ccccc1F)c1ccc(NC(=O)OC(C)(C)C)cc1` [Compound K32] were 2.50 ± 0.28 and 1.05 ± 0.02.
As for `C#CCN(Cc1ccc([N+](=O)[O-])cc1)c1ccc(NC(=O)OC(C)(C)C)cc1` [Compound K38], the “KCNQ4 (IDrug/IControl 100 nM)” value in test [1] is 1.66 ± 0.19. Also, the “KCNQ2 (IDrug/IControl 100 nM)” value in test [2] was 0.96 ± 0.01.
Taken in the same sequence, the figures for `C#CCN(Cc1ccc(F)c(C(F)(F)F)c1)c1ccc(NC(=O)OC(C)(C)C)cc1` [Compound K41] were 1.69 ± 0.19 and 1.03 ± 0.02.
In the same order, the values of `C#CCN(Cc1ccc(F)c([N+](=O)[O-])c1)c1ccc(NC(=O)OC(C)(C)C)cc1` [Compound K42] are 1.35 ± 0.08 and 1.02 ± 0.02.
Taken in the same sequence, the figures for `C#CCN(Cc1ccc(F)c(F)c1)c1ccc(NC(=O)OC(C)(C)C)cc1` [Compound K39] were 1.46 ± 0.02 and 1.10 ± 0.02.
